# Reference: paper PMC6270091, “GABAB-Agonistic Activity of Certain Baclofen Homologues” (Molecules, 2013)
# pEC50: −log10 of the molar value. Entries after “also recorded” stand apart in the source; their conditions may differ. Where a name gives a salt, the structure may show the parent alone.
# Tests used:
# [1] = biological target: T1, GABABR1b/GABABR2 receptors co-expressed with the chimeric G protein Gαq-z5 in tsA201 cells (Rattus norvegicus, UniProt Q9Z0U4); test: GABAB agonist activity, intracellular calcium (Fluo-4) in transfected tsA201 cells; assay type: cell-based; conditions: Ca2+ response; for pEC50: agonist, tsA201 cells transfected with GABAB1b/GABAB2/Gqz5; for GABABR agonistic activity (in words): tsA201 cells
# T1 construct: expressed in transfected cells; host or cells: tsA201 cells (transformed HEK293), transient transfection with pcDNA3.1 plasmids using SuperFect
# Text: We have previously described a robust pharmacological assay of heterodimeric GABABR1b/GABABR2 receptors co-expressed with the chimeric G protein Gαq-z5 in tsA201 cells (a transformed HEK293 cell line). Co-expression of Gαq-z5 convert the endogenous coupling to the Gαi/o signaling pathway to the Gq pathway, which generally leads to more robust assays measured as increases in inositol phosphates or intracellular calcium levels.
# Culture media, serum and antibiotics were obtained from Invitrogen (Paisley, UK). The rat GABABR plasmids and the Gαq-z5 construct were generous gifts from Dr. Janet Clark (National Institute of Health, Bethesda, MD, USA) and Dr. Bruce Conklin (University of California, San Francisco, CA, USA). The tsA201 cells were a generous gift from Dr. Penelope S. V. Jones (University of California, San Diego, CA, USA).
# One million cells were split into a 10 cm tissue culture plate and transfected the following day with 0.7 μg GABABR1b-pcDNA3.1, 3.5 μg GABABR2-pcDNA3.1 and 0.7μg Gαq-z5-pcDNA using SuperFect as a DNA carrier according to the protocol by the manufacturer (Qiagen, Hilden, Germany). The day after transfection, cells were split into one poly-D-lysine coated 96-well black-walled–clear-bottomed tissue culture plates in the same medium as mentioned above and incubated overnight. The following day the measurement of intracellular calcium was performed as follows. The media was exchanged with Hanks balanced saline solution containing 1 mM CaCl2, 1 mM MgCl2, 20 mM HEPES, 2.5 mM probencid and 4 μM Fluo-4AM (pH = 7.4). […] Cells were then washed twice with the same buffer without Fluo-4AM and finally 100 μL of the buffer was left in the wells. […] Fluorescence readings were measured for 45 s after addition of ligand and response was calculated as peak response minus basal level. […] Twenty min after application of ligand, 10 μM GABA was added to the well and fluorescence was measured as above.
# All data analysis has been carried out using GraphPad Prism version 6.0c for Mac OS X (GraphPad Software, San Diego, CA, USA). Concentration-response curves have been fitted by non-linear regression using the equation for sigmoidal concentration-response function:R = Rmin + (Rmax − Rmin)/(1 + 10 ^ (logEC50 − X)) in which X is the logarithm of the agonist concentration, R is the response, Rmax is the maximal response, Rmin is the minimal response and EC50 is the concentration giving half maximum response.
# [2] = biological target: T1, GABABR1b/GABABR2 receptors co-expressed with the chimeric G protein Gαq-z5 in tsA201 cells; test: GABAB antagonist test, intracellular calcium (Fluo-4) against 10 μM GABA in transfected tsA201 cells; assay type: cell-based; conditions: 1 mM concentration against 10 μM GABA
# Text: Regarding the structure-activity relationship in the synthesized series 1a–i, it has to be mentioned that mono-substitution on the aromatic moiety attached to the 3-position of the DAVA backbone with a halogen, especially a para-chloro, is optimum for GABABR agonistic activity. The synthesized compounds which evoked GABABR agonistic activity have the following decreasing order of activity: 1a > 1e > 1f.
# TsA201 cells (a transformed human embryonic kidney (HEK) 293 cell line) were maintained at 37 °C in a humidified 5% CO2 incubator in Dulbecco’s modified Eagle medium (DMEM) supplemented with penicillin (100 U/mL), streptomycin ([…]) and 10% fetal calf serum. One million cells were split into a 10 cm tissue culture plate and transfected the following day with 0.7 μg GABABR1b-pcDNA3.1, 3.5 μg GABABR2-pcDNA3.1 and 0.7μg Gαq-z5-pcDNA using SuperFect as a DNA carrier according to the protocol by the manufacturer (Qiagen, Hilden, Germany). The day after transfection, cells were split into one poly-D-lysine coated 96-well black-walled–clear-bottomed tissue culture plates in the same medium as mentioned above and incubated overnight. The following day the measurement of intracellular calcium was performed as follows. The media was exchanged with Hanks balanced saline solution containing 1 mM CaCl2, 1 mM MgCl2, 20 mM HEPES, 2.5 mM probencid and 4 μM Fluo-4AM (pH = 7.4). The cells were incubated for 1 h at 37 °C in a humidified 5% CO2 incubator. Cells were then washed twice with the same buffer without Fluo-4AM and finally 100 μL of the buffer was left in the wells. The cell plate was then transferred to the NovoStar (BMG Labtechnologies, Offenburg, Germany) and the basal fluorescence level was adjusted to ~10,000 fluorescence units (FU) using excitation/emission wavelengths of 485–520 nm, respectively. Fluorescence readings were measured for 45 s after addition of ligand and response was calculated as peak response minus basal level. […] Twenty min after application of ligand, 10 μM GABA was added to the well and fluorescence was measured as above.
# [3] = tested on: GABAB receptors; parameters: method as in earlier work; conditions: cited from earlier work
# T1 sequence (Q9Z0U4 1-844 isoform Q9Z0U4-3): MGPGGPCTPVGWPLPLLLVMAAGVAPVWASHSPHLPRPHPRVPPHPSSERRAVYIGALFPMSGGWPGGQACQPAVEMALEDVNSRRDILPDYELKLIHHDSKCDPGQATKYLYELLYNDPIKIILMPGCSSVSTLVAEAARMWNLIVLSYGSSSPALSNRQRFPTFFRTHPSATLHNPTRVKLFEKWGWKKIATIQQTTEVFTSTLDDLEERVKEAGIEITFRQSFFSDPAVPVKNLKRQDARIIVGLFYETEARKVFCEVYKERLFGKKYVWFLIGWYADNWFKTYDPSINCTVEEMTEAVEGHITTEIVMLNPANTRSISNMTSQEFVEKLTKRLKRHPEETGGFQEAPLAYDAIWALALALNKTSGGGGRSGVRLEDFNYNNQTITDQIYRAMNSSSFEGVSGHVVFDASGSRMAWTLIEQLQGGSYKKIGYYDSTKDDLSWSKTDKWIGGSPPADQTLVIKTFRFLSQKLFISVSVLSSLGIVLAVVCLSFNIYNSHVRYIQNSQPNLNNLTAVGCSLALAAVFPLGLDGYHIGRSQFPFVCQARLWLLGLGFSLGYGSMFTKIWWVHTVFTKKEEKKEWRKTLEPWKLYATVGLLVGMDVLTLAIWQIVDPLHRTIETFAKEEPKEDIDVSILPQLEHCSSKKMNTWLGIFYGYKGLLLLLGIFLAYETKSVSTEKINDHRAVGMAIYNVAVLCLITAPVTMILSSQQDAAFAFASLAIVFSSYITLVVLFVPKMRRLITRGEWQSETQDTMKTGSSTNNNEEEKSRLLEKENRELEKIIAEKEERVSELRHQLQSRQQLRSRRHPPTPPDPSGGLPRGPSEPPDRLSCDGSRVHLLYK
# T1 sequence (O88871 41-940 partner): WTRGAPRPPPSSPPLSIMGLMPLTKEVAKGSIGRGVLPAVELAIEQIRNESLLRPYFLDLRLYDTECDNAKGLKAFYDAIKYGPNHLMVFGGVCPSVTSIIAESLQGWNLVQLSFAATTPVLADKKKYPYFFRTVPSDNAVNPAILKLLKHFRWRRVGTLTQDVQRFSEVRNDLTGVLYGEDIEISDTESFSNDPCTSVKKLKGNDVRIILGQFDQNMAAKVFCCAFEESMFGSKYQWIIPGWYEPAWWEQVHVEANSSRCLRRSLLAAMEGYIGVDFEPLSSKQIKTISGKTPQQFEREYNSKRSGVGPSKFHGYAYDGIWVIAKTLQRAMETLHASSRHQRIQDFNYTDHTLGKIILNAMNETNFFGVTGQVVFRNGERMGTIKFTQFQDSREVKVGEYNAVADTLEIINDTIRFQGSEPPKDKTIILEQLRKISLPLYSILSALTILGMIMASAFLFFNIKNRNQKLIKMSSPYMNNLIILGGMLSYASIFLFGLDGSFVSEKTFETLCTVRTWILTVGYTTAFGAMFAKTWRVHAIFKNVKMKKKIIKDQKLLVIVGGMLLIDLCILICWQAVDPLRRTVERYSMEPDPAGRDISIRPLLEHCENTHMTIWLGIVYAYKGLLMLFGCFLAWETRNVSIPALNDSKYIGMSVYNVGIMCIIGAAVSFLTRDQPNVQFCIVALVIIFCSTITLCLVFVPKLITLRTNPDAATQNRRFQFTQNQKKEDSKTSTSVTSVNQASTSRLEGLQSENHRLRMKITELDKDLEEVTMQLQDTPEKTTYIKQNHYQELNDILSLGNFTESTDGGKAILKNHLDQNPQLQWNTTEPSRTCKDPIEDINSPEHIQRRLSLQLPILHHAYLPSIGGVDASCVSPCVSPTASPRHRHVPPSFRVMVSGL
SMILES,melting point [°C],pEC50 [1],GABABR antagonist activity [2],further results
"NCCC(CC(=O)O)c1ccc(Cl)cc1 (racemic) (as salt: hydrochloride) [Compound 1a, (R,S)-5-Amino-3-(4-chlorophenyl)pentanoic acid hydrochloride]",201 to 203,–,–,–
"NCCC(CC(=O)O)c1ccc(Cl)cc1Cl (racemic) (as salt: hydrochloride) [Compound 1b, (R,S)-5-Amino-3-(2,4-chlorophenyl)pentanoic acid hydrochloride]",215 to 217,–,–,–
"Cc1ccc(C(CCN)CC(=O)O)cc1 (racemic) (as salt: hydrochloride) [Compound 1c, (R,S)-5-Amino-3-(4-methylphenyl)pentanoic acid hydrochloride]",204 to 206,–,–,–
"NCCC(CC(=O)O)c1ccccc1 (racemic) (as salt: hydrochloride) [Compound 1d, (R,S)-5-Amino-3-phenylpentanoic acid hydrochloride]",195 to 196,–,–,–
"NCCC(CC(=O)O)c1ccc(Cl)c(Cl)c1 (racemic) (as salt: hydrochloride) [Compound 1e, (R,S)-5-Amino-3-(3,4-chlorophenyl)pentanoic acid hydrochloride]",201 to 203,–,–,–
"NCCC(CC(=O)O)c1ccc(F)cc1 (racemic) (as salt: hydrochloride) [Compound 1f, (R,S)-5-Amino-3-(4-fluorophenyl)pentanoic acid hydrochloride]",208 to 210,–,–,–
"COc1cccc(C(CCN)CC(=O)O)c1 (racemic) (as salt: hydrochloride) [Compound 1g, (R,S)-5-Amino-3-(3-methoxyphenyl)pentanoic acid hydrochloride]",182 to 184,–,–,–
"COc1ccc(C(CCN)CC(=O)O)cc1 (racemic) (as salt: hydrochloride) [Compound 1h, (R,S)-5-Amino-3-(4-methoxyphenyl)pentanoic acid hydrochloride]",194 to 195,–,–,–
"NCCC(CC(=O)O)c1ccc(Cl)cc1 (racemic) [Compound 1a, (R,S)-5-Amino-3-(4-chlorophenyl)pentanoic acid hydrochloride]",–,4.34,–,–
"NCCC(CC(=O)O)c1ccc(Cl)cc1Cl (racemic) [Compound 1b, (R,S)-5-Amino-3-(2,4-chlorophenyl)pentanoic acid hydrochloride]",–,< 3.52,none of these compounds were effective,GABABR agonistic activity (in words) [1]: lack of GABABR agonistic activity
"Cc1ccc(C(CCN)CC(=O)O)cc1 (racemic) [Compound 1c, (R,S)-5-Amino-3-(4-methylphenyl)pentanoic acid hydrochloride]",–,< 3.52,none of these compounds were effective,–
"NCCC(CC(=O)O)c1ccccc1 (racemic) [Compound 1d, (R,S)-5-Amino-3-phenylpentanoic acid hydrochloride]",–,< 3.52,none of these compounds were effective,–
"NCCC(CC(=O)O)c1ccc(Cl)c(Cl)c1 (racemic) [Compound 1e, (R,S)-5-Amino-3-(3,4-chlorophenyl)pentanoic acid hydrochloride]",–,3.89,–,–
"NCCC(CC(=O)O)c1ccc(F)cc1 (racemic) [Compound 1f, (R,S)-5-Amino-3-(4-fluorophenyl)pentanoic acid hydrochloride]",–,3.77,–,–
"COc1cccc(C(CCN)CC(=O)O)c1 (racemic) [Compound 1g, (R,S)-5-Amino-3-(3-methoxyphenyl)pentanoic acid hydrochloride]",–,< 3.52,none of these compounds were effective,–
"COc1ccc(C(CCN)CC(=O)O)cc1 (racemic) [Compound 1h, (R,S)-5-Amino-3-(4-methoxyphenyl)pentanoic acid hydrochloride]",–,< 3.52,none of these compounds were effective,–
"CC(CCN)CC(=O)O (racemic) [Compound 1i, (R,S)-5-amino-3-methylpentanoic acid]",164 to 165,< 3.52,none of these compounds were effective,GABABR agonistic activity (in words) [1]: loss of GABABR agonistic activity; also recorded: devoid of GABABR agonistic activity
"NCCCC(C(=O)O)c1ccc(Cl)cc1 (racemic) [Compound 3, (R,S)-5-amino-2-(4-chlorophenyl)pentanoic acid]",–,–,–,interaction with GABAB receptors [3]: does not interact detectably
